Key:
[1] = test system: human melanoma primary cultures and cell lines; test: BrdU incorporation in melanoma primary cultures and cell lines; assay type: cell-based
Description: (§1) Human foreskin melanocytes (Promocell) were grown in serum-free M2 medium (Promocell). WM-115, SK-MEL-2, SK-MEL-5, MeWo and COS7 cell lines (ATCC) were grown as specified. Tumors were chopped, incubated in E-MEM (Sigma) containing collagenase A (300 U/ml, Worthington) and hyaluronidase (100 U/ml, Sigma), mechanically dissociated and plated in E-MEM with 10% FBS, 1 mM sodium pyruvate (GIBCO) and 1 ng/ml EGF (GIBCO). […] All melanoma samples and BCC were obtained following approved protocols.
(§2) Commercial N-SHH (R&D Systems) was used at 100 nM. 5E1 anti-SHH blocking antibody (Hybridoma Bank, University of Iowa) was used at 10 μg/ml. Forskolin (FK) and 1,9-dideoxyforskolin (ddFK; Sigma) were used at 50 μM. […] MEK-1 (U0126; Promega), EGFR (AG1478; Biosource) and AKT (SH6; Alexis corporation) inhibitors were used at 1, 10, and 40 μM, respectively, dissolved in DMSO. Drug treatments were for 48 h in 2.5% serum. BrdU (Sigma) was pulsed at 4 μg/ml for 2 h before fixation followed by immunodetection with anti-BrdU antibodies (BD Biosciences). The number of viable cells was assessed by Trypan blue exclusion (Promega).

[2] = test system: GLI1-transfected WM-115, SK-MEL-2 and SK-MEL-5; test: GLI1-transfection enhanced BrdU incorporation, treatment with inhibitors; assay type: cell-based, human; conditions: 48 h treatment
Description: as §2

[3] = test system: EJ-1 human bladder carcinoma; conditions: in vivo; cited from earlier work
[4] = test system: HRAS^V12G or NRAS^Q61K transfected WM-115 and SK-Mel2 cells; test: oncogenic RAS-transfection enhanced BrdU incorporation (Example 2); assay type: cell-based, human
Description: Forskolin (FK) and 1,9-dideoxyforskolin (ddFK; Sigma) were used at 50 μM. MEK-1 (U0126; Promega), and AKT (SH6; Alexis corporation) inhibitors were used at 1 and 40 μM, respectively, dissolved in DMSO. U0126 and SH6 were used for 1 h, 48 h post-transfection. Leptomycin B (LMB; Sigma) was used at 5 nM for 6 h, 48 h post-transfection. BrdU (Sigma) was pulsed at 4 μg/ml for 2 h before fixation followed by immunodetection with anti-BrdU antibodies (BD Biosciences). The number of viable cells was assessed by Trypan blue exclusion (Promega). […] (SEQ ID NO: 57) (target-validated from Ambion). […] SEQ ID NO: 58) (Sanchez, P. et al. Inhibition of prostate cancer proliferation by interference with SONIC HEDGEHOG-GLI1 signaling. Proc. Natl. Acad. Sci. USA. 101, 12561-12566 (2004)). siRNA transfections (0.2 μM) were performed with Oligofectamine (Invitrogen) for 48 h.
Cells were transfected (3 μg/p35 plate) with myc-tagged full-length CMV expression vectors with FUGENE (Roche). Transfections were at equimolar amounts unless otherwise specified with combinations of pCS2-Myc-tagged human GLI1, GLI3, GLI3R (GLI3C′ΔClaI), frog Gli2R (Gli2C′) (Ruiz i Altaba, A. Gli proteins encode context-dependent positive and negative functions: implications for development and disease. Development 126, 3205-3216 (1999), pCMV-HA-tagged GLI1 (ref. 20), HRAS^V12G (from A. Pellicer), NRAS^Q61K (Ackermann, J. et al. Metastasizing melanoma formation caused by expression of activated N-RasQ61K on an INK4a-deficient background. Cancer Res. 65, 4005-4011 (2005)), activated (myristoylated) myc-tagged AKT1 (Upstate), activated MEK1 (p45MAPKK^S222D; from J. Pouyssegur), Myc-tagged SUFUH (Kogerman, P. et al. Mammalian suppressor-of-fused modulates nuclear-cytoplasmic shuttling of Gli-1. Nat Cell Biol. 1, 312-319 (1999)), and pCMV-eGFP or pCMV-lacZ.

[5] = test system: Nude Harlan Sprague-Dawley Mice/lung (A-549, Calu-1) tumors; conditions: 70 mg/kg/d; cited from earlier work
Nude mice/HIG3T3 = conditions: nude mice transplanted with activated H-Ras-transformed HIG3T3 cells; cited from earlier work
[6] = test system: GLI1 transcriptional activity; test: GLI luciferase reporter assay (7 GLI binding site reporter) in COS7 cells; assay type: cell-based, monkey
human cancer cells = conditions: cited from earlier work
[7] = test system: ras-transformed rat kidney cell; conditions: cited from earlier work
p-ERK, p-AKT = test: levels of p-ERK or p-AKT in melanoma cells; assay type: cell-based, human; conditions: cyclopamine treatment
[8] = test system: Proliferating melanocytes from human foreskin; test: BrdU incorporation in proliferating melanocytes; assay type: cell-based
Description: as §1, §2

MeWo/LacZ melanomas = test: subcutaneous MeWo/LacZ melanoma xenografts in nude mice; assay type: in vivo, mouse
Description: (§5) 5×10^5 MeWo/LacZ, WM-115 or 10^6 primary Me-3 melanoma cells were inoculated subcutaneously (s.c.) at two sides per adult male (NMRI-nu) nude mouse and the tumors were measured daily. […] For metastasis studies, 1×10^6 Mewo/LacZ cells were injected into the tail vein (i.v.) of adult male nude mice. […] At the end of the treatment the lungs were dissected and stained with XGal.

WM-115, Me-3 and MeWo = test: long-term cyclopamine treatment and recovery of cultures; assay type: cell-based, human; conditions: ten days, drug-containing media anew every 2 days
WM115 cells = test: BrdU incorporation, MEK inhibitor plus cyclopamine; assay type: cell-based, human; conditions: 5 μM cyclopamine plus 1 μM U0126, 48 hours
Description: (§3) Cell proliferation was assessed after incubation with BrdU as described.

[9] = test system: WM115, SK-MEL-2, SK-MEL-5 and MeWo cell lines; test: BrdU incorporation in melanoma cell lines; assay type: cell-based, human
Description: as §1, §2

[10] = test system: GLI1, PTCH1, BMI1, FOXM1, MITFM expression; test: qPCR gene expression in melanoma cultures; assay type: cell-based, human
Description: (§4) Real-time quantitative PCR amplifications with different primers (Suppl. Materials) were carried out at 60° C. on an Opticon machine (MJ Research) using iQ™ SYBR Green supermix (Biorad) and values calculated using the standard curve method.
as §2

[11] = test system: NRAS^Q61K mouse melanoma primary cultures; test: BrdU incorporation in primary cultures of Tyr-NRAS^Q61K; Ink4a−/− mouse melanomas; assay type: cell-based; conditions: 10 μM
Description: WM-115, SK-MEL-2 and COS7 cell lines (ATCC) were grown according to the specifications of the provider. The primary Me-3 melanoma (Stecca, B. et al. Melanocyte proliferation and melanoma growth, recurrence and metastasis require sustained SONIC HEDGEHOG-GLI signaling. Submitted. (2006)) was grown in E-MEM with 10% FBS (Hyclone), 1 mM sodium pyruvate (GIBCO) and 1 ng/ml EGF (GIBCO). Proliferating human melanocytes from foreskin (Promocell) were grown in M2 media (Promocell). Melanomas from ±6 month-old Tyr→NRAS^Q61K; Ink4a^−/− mice on a light coat color Dct^−/− background^13 were collected from the skin and lymph nodes. Tumors were dissociated and grown in E-MEM with 10% FBS, 1 mM sodium pyruvate (GIBCO) and 1 ng/ml EGF (GIBCO). Mouse embryonic fibroblasts (MEFs) were prepared from E14.5 Swiss Webster mouse embryos and grown in DMEM with 10% FBS.
Forskolin (FK) and 1,9-dideoxyforskolin (ddFK; Sigma) were used at 50 μM. MEK-1 (U0126; Promega), and AKT (SH6; Alexis corporation) inhibitors were used at 1 and 40 μM, respectively, dissolved in DMSO. U0126 and SH6 were used for 1 h, 48 h post-transfection. Leptomycin B (LMB; Sigma) was used at 5 nM for 6 h, 48 h post-transfection. BrdU (Sigma) was pulsed at 4 μg/ml for 2 h before fixation followed by immunodetection with anti-BrdU antibodies (BD Biosciences). The number of viable cells was assessed by Trypan blue exclusion (Promega). […]

[12] = test system: WM-115 subcutaneous tumors; test: subcutaneous WM-115 melanoma xenografts in nude mice; assay type: in vivo, mouse; conditions: n=2 treated vs n=2 carrier
Description: as §5

Mewo cells = test: BrdU incorporation, AKT inhibitor plus cyclopamine; assay type: cell-based, human; conditions: 5 μM cyclopamine plus 20 μM SH6, 48 hours
Description: as §3

[13] = test system: GLI1, HIP and MITFM expression; test: qPCR gene expression in proliferating melanocytes after SHH; assay type: cell-based, human; conditions: SHH treatment, 8 h, qPCR normalized to GAPDH
Description: as §4

[14] = test system: primary cultures Me-1 to Me-5 (melanoma metastases); test: BrdU incorporation in melanoma primary cultures; assay type: cell-based, human; conditions: exogenous recombinant SHH ligand, 48 h; fraction of five primary cultures
Description: as §1, §2

For `COc1cc2ncnc(Nc3cccc(Cl)c3)c2cc1OC` [AG1428], the BrdU incorporation ([1]; 48 h, all four melanoma cell lines tested and Me-3) was “decreased BrdU incorporation” and the “effect on GLI1-enhanced proliferation” value [2] was “reversed”.
For `COC(=O)[C@H](CCSC)NC(=O)[C@H](/C=C\[C@@H](/C=C/[C@@H](N)CS)C(C)C)Cc1ccccc1` [B1086], the tumor growth [3] is listed as “inhibit tumor growth”.
With `C=C[C@@]1(C)CC(=O)[C@]2(O)[C@@]3(C)[C@@H](O)CCC(C)(C)[C@@H]3[C@H](O)[C@H](OC(C)=O)[C@@]2(C)O1` [Forskolin] the “inhibition of oncogenic RAS-induced proliferation” value ([4]; SK-Mel2) was 100% and the “inhibition of oncogenic RAS-induced proliferation” value ([4]; WM-115) was about 80%.
In the case of `CC(C)C[C@H](NC(=O)c1ccc(NC[C@@H](N)CS)cc1-c1cccc2ccccc12)C(=O)O` [GGTI-297], the “GROWTH INHIBITION” value [5] is given as 56%-70%.
In the case of `C[C@H]([C@H](C/C=C/c1nc2ccccc2o1)c1ccc2c(c1)OCO2)N(Cc1ccc2ccccc2c1)C(=O)[C@H]1OC(C(=O)O)(C(=O)O)O[C@H]1C(=O)O` [J-104871], the tumor growth (Nude mice/HIG3T3) is given as “suppressed tumor growth”.
For `CCC(=C/[C@H](C)C/C=C/C(C)=C/[C@@H](C)C(=O)[C@@H](C)[C@H](O)[C@@H](C)C/C(C)=C/C(=O)O)/C=C/[C@@H]1OC(=O)C=C[C@@H]1C` [LMB], the “increase of GLI1-induced luciferase activity” value ([6]; GLI1 alone, 4 h treatment with LMB) was about 3 fold and the “further increase in GLI activity” value ([6]; cells coexpressing GLI1 and NRAS^Q61K, LMB treatment) was about 3 fold.
For `Cc1ccc(S(=O)(=O)N[C@@H](Cc2ccccc2)C(=O)CCl)cc1` [TPCK], the anchorage-independent clonogenic growth (human cancer cells) is listed as “almost completely block” and the cell growth [7] is listed as “potently inhibit”.
In the case of `CC1=C2C[C@H]3[C@@H](CC=C4C[C@@H](O)CC[C@@]43C)[C@@H]2CC[C@]12O[C@@H]1C[C@H](C)CN[C@H]1[C@H]2C` [cyclopamine], the “levels of p-ERK or p-AKT” value (p-ERK, p-AKT) is reported as “did not alter”, the “induction of the senescence marker SA-β-gal” value ([8]; cyclopamine treatment) is reported as “did not induce” and the “recurrence after sustained treatment” value (MeWo/LacZ melanomas; 20 d treatment after tumor disappearance, 42 additional days) is reported as “no recurrences”. For the same compound, the “tumor response to injection into the tumor” value (MeWo/LacZ melanomas; cyclodextrin-complexed cyclopamine injected into the tumor, tumors ±10 mm^3 or ±65 mm^3, vs cyclodextrin alone) was “rapid regression and disappearance of the tumors”, the “cured tumors containing small pockets of β-gal+ tumor cells or groups of single cells” value (MeWo/LacZ melanomas; five cured tumors taken 1-2 days after macroscopic disappearance) was “⅘” and the “time to tumor reappearance” value (MeWo/LacZ melanomas; from the end of 3 d and 10 d additional treatment after tumor disappearance) was 2 to 7 days. For the same compound, the “decrease in tumor volume” value (MeWo/LacZ melanomas; systemic treatment of large subcutaneous tumors (±65 mm^3), 16 days, vs carrier-only) was 33%, the “response of BrdU incorporation to cyclopamine” value ([1]; 24-48 h, dose-dependent, compared with tomatidine) was “all responded” and the “BrdU incorporation after long-term treatment” value (WM-115, Me-3 and MeWo) was “inhibit all BrdU incorporation”. For the same compound, the “inhibition of oncogenic RAS-enhanced BrdU incorporation” value ([4]; WM-115 and SK-Mel2) was 65-75%, the “effect on BrdU incorporation of suboptimal cyclopamine combined with U0126” value (WM115 cells) was “significantly effective” and the “sensitivity of tumor-derived MeWo/lacZ cells to cyclopamine in vitro versus parental cells” value ([9]; cells from systemically treated tumors) was “same sensitivity”. The GLI1 expression ([10]; 24-48 h cyclopamine treatment) was “decreased GLI1 expression”, the PTCH1 expression ([10]; cyclopamine 8 h, 3 primary cultures tested) was “inhibited PTCH1 expression” and the “Expression of BMI1, FOXM1 and MITFM” value ([10]; cyclopamine 8 h, primary cultures) was “repressed”. For the same compound, the “number of doubly BrdU+/GFP+ cells” value ([11]; two primary cultures (1-PM2, 1-LNM5), GFP plus control plasmid) was “decreased the number of doubly BrdU+/GFP+ cells”, the “tumor response to cyclopamine treatment” value [12] was “lead to their disappearance” and the “effect on BrdU incorporation of suboptimal cyclopamine combined with SH6” value (Mewo cells) was “significantly effective”.
For `C[C@H]1CC[C@]2(NC1)O[C@H]1C[C@H]3[C@@H]4CC[C@H]5C[C@@H](O)CC[C@]5(C)[C@H]4CC[C@]3(C)[C@H]1[C@@H]2C` [tomatidine], the “proliferation of all 12 primary cultures” value ([11]; 48 h) was “no effect”.
In the case of “SHH: Commercial N-SHH (R&D Systems), recombinant SHH ligand”, the “induction of GLI1 expression” value [13] is reported as 2-3 fold, the “induction of HIP expression” value [13] is reported as 2-3 fold and the “induction of MITFM expression” value [13] is reported as 6 fold. For the same compound, the increase in proliferation ([8]; recombinant SHH ligand, 48 h, over PBS) was “⅓”, the “cell lines with increased BrdU incorporation above a basal level (10%)” value ([9]; exogenous recombinant SHH ligand, 48 h, fraction of four cell lines) was “¾” and the “primary cultures with increased BrdU incorporation above a basal level (10%)” value [14] was “⅘”.

Reference: patent publication US7709454B2, “Methods and compositions for inhibiting tumorigenesis” (New York University, priority 1997, dated 2010)
